Laboratory results: publication PMC9234961 (Journal of Medicinal Chemistry, 2022)
Like-named read-outs stand apart in the source and are kept apart here.

Legend:
kinases (468) [1] = molecular target: kinases (468) (Homo sapiens, UniProt Q9UK32); settings: compound concentration 1000 nM
kinases (468) [2] = molecular target: kinases (468) (Homo sapiens, UniProt Q8WTQ7); settings: GRK7; 1000 nM
kinases (468) [3] = molecular target: kinases (468) (Homo sapiens, UniProt Q9UHD2); settings: kinase TBK1 (Entrez TBK1); compound concentration 1000 nM
kinases (468) [4] = molecular target: kinases (468) (Homo sapiens, UniProt P78362); settings: kinase SRPK2 (Entrez SRPK2); compound concentration 1000 nM
kinases (468) [5] = molecular target: kinases (468) (Homo sapiens, UniProt O14757); settings: CHEK1; 1000 nM
kinases (468) [6] = molecular target: kinases (468) (Homo sapiens, UniProt P51817); settings: PRKX; 1000 nM
kinases (468) [7] = molecular target: kinases (468) (Homo sapiens, UniProt P00533, G719S); settings: EGFR(G719S); 1000 nM
kinases (468) (Homo sapiens, UniProt P00533, G719S), sequence (P00533 25-1210 G719S, looked up): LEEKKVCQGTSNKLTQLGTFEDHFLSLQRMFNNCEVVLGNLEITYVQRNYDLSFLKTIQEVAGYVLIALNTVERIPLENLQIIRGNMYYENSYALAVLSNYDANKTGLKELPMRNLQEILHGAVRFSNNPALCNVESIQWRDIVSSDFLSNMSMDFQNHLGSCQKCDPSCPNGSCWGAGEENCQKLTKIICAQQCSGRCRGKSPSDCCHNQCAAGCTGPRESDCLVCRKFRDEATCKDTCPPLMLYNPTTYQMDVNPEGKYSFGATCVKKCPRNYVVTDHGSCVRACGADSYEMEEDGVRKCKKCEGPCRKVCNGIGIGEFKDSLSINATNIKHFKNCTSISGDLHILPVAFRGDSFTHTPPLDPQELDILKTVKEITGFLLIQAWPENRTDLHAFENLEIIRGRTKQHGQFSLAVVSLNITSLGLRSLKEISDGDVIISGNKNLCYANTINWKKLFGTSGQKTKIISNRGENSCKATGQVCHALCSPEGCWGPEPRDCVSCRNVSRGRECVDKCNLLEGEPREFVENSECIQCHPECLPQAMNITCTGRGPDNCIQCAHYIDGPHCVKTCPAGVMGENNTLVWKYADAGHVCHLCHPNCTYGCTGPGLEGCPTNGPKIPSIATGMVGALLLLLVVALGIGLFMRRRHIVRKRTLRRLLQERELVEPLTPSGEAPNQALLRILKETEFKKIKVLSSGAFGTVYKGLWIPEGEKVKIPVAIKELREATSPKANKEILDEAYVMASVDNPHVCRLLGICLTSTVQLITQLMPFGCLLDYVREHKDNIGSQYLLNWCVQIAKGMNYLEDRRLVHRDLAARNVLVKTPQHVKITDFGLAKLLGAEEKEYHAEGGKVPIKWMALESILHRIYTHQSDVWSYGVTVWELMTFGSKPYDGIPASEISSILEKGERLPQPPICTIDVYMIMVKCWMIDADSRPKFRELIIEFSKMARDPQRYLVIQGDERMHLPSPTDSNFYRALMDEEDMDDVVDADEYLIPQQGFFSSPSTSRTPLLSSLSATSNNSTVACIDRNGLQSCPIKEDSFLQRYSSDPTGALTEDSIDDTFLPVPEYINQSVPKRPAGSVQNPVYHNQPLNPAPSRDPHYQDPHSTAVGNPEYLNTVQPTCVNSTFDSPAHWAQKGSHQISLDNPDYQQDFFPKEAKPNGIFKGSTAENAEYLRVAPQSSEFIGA

kinases (468) [8] = molecular target: kinases (468) (Homo sapiens, UniProt Q14680); settings: MELK; 1000 nM
kinases (468) [9] = molecular target: kinases (468) (Homo sapiens, UniProt Q9BXA7); settings: kinase TSSK1B (Entrez TSSK1B); compound concentration 1000 nM
kinases (468) [10] = molecular target: kinases (468) (Homo sapiens, UniProt Q7L7X3); settings: kinase TAOK1 (Entrez TAOK1); compound concentration 1000 nM
kinases (468) [11] = molecular target: kinases (468) (Homo sapiens, UniProt P54756); settings: EPHA5; 1000 nM
kinases (468) [12] = molecular target: kinases (468) (Homo sapiens, UniProt Q96D53); settings: ADCK4; 1000 nM
kinases (468) [13] = molecular target: kinases (468) (Homo sapiens, UniProt Q86YV6); settings: MYLK4; 1000 nM
kinases (468) [14] = molecular target: kinases (468) (Homo sapiens, UniProt Q9Y2K2); settings: QSK (KIAA0999); 1000 nM
kinases (468) (Homo sapiens, UniProt Q9Y2K2), sequence (Q9Y2K2 whole entry): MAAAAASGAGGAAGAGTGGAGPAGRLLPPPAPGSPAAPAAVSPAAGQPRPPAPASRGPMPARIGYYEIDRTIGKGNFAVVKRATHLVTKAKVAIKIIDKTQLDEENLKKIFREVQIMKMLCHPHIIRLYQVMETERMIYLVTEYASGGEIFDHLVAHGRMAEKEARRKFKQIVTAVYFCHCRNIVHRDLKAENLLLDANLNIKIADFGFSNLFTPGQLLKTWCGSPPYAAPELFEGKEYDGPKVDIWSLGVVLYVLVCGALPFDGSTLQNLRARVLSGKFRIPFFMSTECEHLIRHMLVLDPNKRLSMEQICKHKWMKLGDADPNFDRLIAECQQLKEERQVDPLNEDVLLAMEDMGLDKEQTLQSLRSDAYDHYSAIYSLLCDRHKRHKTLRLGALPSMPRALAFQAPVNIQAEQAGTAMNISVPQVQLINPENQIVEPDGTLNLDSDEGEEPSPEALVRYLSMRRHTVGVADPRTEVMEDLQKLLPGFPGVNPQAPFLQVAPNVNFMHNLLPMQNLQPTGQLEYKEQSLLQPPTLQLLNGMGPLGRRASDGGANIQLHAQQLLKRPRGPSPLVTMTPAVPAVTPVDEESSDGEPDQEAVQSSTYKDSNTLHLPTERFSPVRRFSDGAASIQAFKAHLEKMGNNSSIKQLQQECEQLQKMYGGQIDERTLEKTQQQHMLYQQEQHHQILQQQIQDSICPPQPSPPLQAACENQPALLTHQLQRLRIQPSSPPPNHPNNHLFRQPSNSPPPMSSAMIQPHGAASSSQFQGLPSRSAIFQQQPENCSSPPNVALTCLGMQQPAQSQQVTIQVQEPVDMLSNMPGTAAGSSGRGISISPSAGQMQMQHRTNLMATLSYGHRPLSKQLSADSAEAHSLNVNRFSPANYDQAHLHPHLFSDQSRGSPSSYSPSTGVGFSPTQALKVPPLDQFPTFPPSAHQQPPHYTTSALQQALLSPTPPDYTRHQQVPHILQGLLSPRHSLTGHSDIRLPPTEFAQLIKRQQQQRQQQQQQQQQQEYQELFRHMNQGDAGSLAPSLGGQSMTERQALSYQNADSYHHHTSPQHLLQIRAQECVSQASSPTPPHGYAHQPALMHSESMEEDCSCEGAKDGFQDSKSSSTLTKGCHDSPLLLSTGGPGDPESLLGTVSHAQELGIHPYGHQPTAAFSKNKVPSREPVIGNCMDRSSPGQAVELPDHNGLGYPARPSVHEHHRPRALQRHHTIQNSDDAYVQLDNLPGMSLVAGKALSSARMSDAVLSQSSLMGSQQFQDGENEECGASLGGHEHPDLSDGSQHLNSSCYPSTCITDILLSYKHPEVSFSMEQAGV

kinases (468) [15] = molecular target: kinases (468) (Homo sapiens, UniProt P36888, D835H); settings: FLT3(D835H); 1000 nM
kinases (468) [16] = molecular target: kinases (468) (Homo sapiens, UniProt P43403); settings: kinase ZAP70 (Entrez ZAP70); compound concentration 1000 nM
kinases (468) [17] = molecular target: kinases (468) (Homo sapiens, UniProt Q9P2K8, S808G); settings: GCN2(Kin.Dom.2,S808G) (EIF2AK4); 1000 nM
kinases (468) [18] = molecular target: kinases (468) (Homo sapiens, UniProt P50613); settings: CDK7; 1000 nM
kinases (468) [19] = molecular target: kinases (468) (Homo sapiens, UniProt O94921); settings: PFTK1 (CDK14); 1000 nM
kinases (468) (Homo sapiens, UniProt O94921), sequence (O94921 whole entry): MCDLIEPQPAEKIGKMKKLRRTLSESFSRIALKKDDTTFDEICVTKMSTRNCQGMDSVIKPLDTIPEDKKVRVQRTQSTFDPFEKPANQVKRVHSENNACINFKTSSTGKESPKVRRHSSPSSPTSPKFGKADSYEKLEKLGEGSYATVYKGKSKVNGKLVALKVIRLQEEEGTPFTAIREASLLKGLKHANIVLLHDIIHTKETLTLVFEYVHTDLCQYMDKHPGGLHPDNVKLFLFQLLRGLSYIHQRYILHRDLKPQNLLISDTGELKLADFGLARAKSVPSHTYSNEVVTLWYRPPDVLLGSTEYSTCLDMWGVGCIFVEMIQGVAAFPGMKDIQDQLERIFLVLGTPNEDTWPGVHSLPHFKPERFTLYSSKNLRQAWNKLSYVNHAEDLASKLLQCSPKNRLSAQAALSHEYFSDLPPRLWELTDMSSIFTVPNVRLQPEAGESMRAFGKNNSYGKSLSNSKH

kinases (468) [20] = molecular target: kinases (468) (Homo sapiens, UniProt P14616); settings: INSRR; 1000 nM
kinases (468) [21] = molecular target: kinases (468) (Homo sapiens, UniProt Q9Y463); settings: DYRK1B; 1000 nM
kinases (468) [22] = molecular target: kinases (468) (Homo sapiens, UniProt Q9BYP7); settings: kinase WNK3 (Entrez WNK3); compound concentration 1000 nM
kinases (468) [23] = molecular target: kinases (468) (Homo sapiens, UniProt O60285); settings: ARK5 (NUAK1); 1000 nM
kinases (468) [24] = molecular target: kinases (468) (Homo sapiens, UniProt Q86UE8); settings: kinase TLK2 (Entrez TLK2); compound concentration 1000 nM
kinases (468) (Homo sapiens, UniProt Q86UE8), sequence (Q86UE8 whole entry): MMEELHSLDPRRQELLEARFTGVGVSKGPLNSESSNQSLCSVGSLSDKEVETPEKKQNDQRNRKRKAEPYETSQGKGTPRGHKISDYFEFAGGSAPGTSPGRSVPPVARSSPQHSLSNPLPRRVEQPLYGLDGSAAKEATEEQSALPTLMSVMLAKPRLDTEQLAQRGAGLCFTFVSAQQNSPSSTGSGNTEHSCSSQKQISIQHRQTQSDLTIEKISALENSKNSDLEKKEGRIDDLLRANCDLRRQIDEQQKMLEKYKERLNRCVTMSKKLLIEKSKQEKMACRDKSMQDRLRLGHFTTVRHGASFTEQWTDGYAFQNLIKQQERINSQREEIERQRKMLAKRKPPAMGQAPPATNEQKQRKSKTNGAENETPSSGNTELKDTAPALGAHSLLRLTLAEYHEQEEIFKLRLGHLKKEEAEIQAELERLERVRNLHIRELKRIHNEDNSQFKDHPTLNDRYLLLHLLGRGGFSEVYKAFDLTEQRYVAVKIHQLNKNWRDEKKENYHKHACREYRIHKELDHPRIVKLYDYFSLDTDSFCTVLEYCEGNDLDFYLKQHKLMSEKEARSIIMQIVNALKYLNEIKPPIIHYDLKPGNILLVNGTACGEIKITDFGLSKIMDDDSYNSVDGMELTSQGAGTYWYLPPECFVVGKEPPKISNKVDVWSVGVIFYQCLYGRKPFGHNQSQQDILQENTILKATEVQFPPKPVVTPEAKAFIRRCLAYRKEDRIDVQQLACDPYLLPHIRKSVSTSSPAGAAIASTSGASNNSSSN

kinases (468) [25] = molecular target: kinases (468) (Homo sapiens, UniProt P00519, Q252H); settings: 1000 nM
kinases (468) [26] = molecular target: kinases (468) (Homo sapiens, UniProt O00506); settings: kinase YSK1 (Entrez STK25); compound concentration 1000 nM
kinases (468) (Homo sapiens, UniProt O00506), sequence (O00506 whole entry): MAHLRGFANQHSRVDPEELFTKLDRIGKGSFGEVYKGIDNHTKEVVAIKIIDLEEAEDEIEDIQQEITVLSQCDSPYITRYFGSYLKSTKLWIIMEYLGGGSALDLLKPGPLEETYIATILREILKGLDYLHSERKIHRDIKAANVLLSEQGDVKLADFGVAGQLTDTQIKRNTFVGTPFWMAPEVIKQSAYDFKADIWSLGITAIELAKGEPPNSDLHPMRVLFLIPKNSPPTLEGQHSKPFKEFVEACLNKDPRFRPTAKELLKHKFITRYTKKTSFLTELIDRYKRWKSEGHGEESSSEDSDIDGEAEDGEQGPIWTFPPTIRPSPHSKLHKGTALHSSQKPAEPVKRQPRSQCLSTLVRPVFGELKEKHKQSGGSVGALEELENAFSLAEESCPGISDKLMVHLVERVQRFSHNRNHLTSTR

kinases (468) [27] = molecular target: kinases (468) (Homo sapiens, UniProt Q05655); settings: PRKCD; 1000 nM
kinases (468) [28] = molecular target: kinases (468) (Homo sapiens, UniProt Q8N4C8); settings: MINK (MINK1); 1000 nM
kinases (468) [29] = molecular target: kinases (468) (Homo sapiens, UniProt Q9Y3S1); settings: kinase WNK2 (Entrez WNK2); compound concentration 1000 nM
kinases (468) [30] = molecular target: kinases (468) (Homo sapiens, UniProt Q9UPZ9); settings: ICK; 1000 nM
kinases (468) [31] = molecular target: kinases (468) (Homo sapiens, UniProt Q6DT37); settings: DMPK2 (CDC42BPG); 1000 nM
kinases (468) [32] = molecular target: kinases (468) (Homo sapiens, UniProt Q05397); settings: FAK (PTK2); 1000 nM
kinases (468) [33] = molecular target: kinases (468) (Homo sapiens, UniProt P00519, T315I); settings: 1000 nM

kinases (468) (Homo sapiens, UniProt Q9UK32), sequence (Q9UK32 whole entry): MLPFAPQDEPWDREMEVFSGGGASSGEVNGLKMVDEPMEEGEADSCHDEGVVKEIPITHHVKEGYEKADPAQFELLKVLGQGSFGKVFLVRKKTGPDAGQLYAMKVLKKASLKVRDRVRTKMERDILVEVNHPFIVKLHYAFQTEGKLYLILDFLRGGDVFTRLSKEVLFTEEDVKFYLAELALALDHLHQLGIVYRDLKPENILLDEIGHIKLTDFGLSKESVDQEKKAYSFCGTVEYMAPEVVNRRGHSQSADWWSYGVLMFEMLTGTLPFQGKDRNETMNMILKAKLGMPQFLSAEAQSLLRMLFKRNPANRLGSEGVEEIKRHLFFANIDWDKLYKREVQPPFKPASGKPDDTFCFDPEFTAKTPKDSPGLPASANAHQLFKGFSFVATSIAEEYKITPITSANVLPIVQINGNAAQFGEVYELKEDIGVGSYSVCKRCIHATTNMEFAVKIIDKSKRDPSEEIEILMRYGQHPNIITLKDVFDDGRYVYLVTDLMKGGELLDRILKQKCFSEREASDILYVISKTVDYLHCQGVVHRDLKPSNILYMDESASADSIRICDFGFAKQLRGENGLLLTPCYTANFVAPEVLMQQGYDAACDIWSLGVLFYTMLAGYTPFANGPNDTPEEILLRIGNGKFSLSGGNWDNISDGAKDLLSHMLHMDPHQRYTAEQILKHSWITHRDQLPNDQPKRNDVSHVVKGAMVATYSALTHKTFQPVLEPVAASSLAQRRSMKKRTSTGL

C[C@H]1C[C@@H](O)CN(c2ncc(Cl)c(Nc3ccc4c(c3)c3c(c(=O)n4C)OCC(F)(F)[C@H](C4CC4)N3)n2)C1 [CCT373566_9A]
Percent Control (kinases (468) [1]; kinase RSK4(Kin.Dom.1-N-terminal) (Entrez RPS6KA6)): 90%
Percent Control (kinases (468) [1]; kinase RSK4(Kin.Dom.2-C-terminal) (Entrez RPS6KA6)): 88%
Percent Control (kinases (468) [2]): 96%
Percent Control (kinases (468) [3]): 100%
Percent Control (kinases (468) [4]): 100%
Percent Control (kinases (468) [5]): 100%
Percent Control (kinases (468) [6]): 100%
Percent Control (kinases (468) [7]): 100%
Percent Control (kinases (468) [8]): 100%
Percent Control (kinases (468) [9]): 100%
Percent Control (kinases (468) [10]): 99%
Percent Control (kinases (468) [11]): 98%
Percent Control (kinases (468) [12]): 93%
Percent Control (kinases (468) [13]): 100%
Percent Control (kinases (468) [14]): 90%
Percent Control (kinases (468) [15]): 90%
Percent Control (kinases (468) [16]): 100%
Percent Control (kinases (468) [17]): 100%
Percent Control (kinases (468) [18]): 93%
Percent Control (kinases (468) [19]): 95%
Percent Control (kinases (468) [20]): 100%
Percent Control (kinases (468) [21]): 87%
Percent Control (kinases (468) [22]): 96%
Percent Control (kinases (468) [23]): 98%
Percent Control (kinases (468) [24]): 100%
Percent Control (kinases (468) [25]; ABL1(Q252H)-nonphosphorylated): 94%
Percent Control (kinases (468) [25]; ABL1(Q252H)-phosphorylated): 98%
Percent Control (kinases (468) [26]): 91%
Percent Control (kinases (468) [27]): 100%
Percent Control (kinases (468) [28]): 87%
Percent Control (kinases (468) [29]): 100%
Percent Control (kinases (468) [30]): 100%
Percent Control (kinases (468) [31]): 100%
Percent Control (kinases (468) [32]): 96%
Percent Control (kinases (468) [33]; ABL1(T315I)-nonphosphorylated): 89%
Percent Control (kinases (468) [33]; ABL1(T315I)-phosphorylated): 88%
